Data published in publication PMC9834240, “Senescent cells perturb intestinal stem cell differentiation through Ptk7 induced noncanonical Wnt and YAP signaling” (Nature Communications, 2023).
Where “and” joins values, the source holds several entries; their conditions need not be identical. Identical values can stand only once.

Legend:
Assay type in all cases: cell-based
[1] = test system: mouse intestinal organoids; test: cystic organoid percentage, organoids in conditioned media (SCM/QCM) with or without inhibitors or antibodies; conditions: for cystic organoid percentage: DMSO = 0; for effect on cystic organoid phenotype: SCM-exposed organoids; for percentage of cystic organoids: Fig. 3c, dialyzed, individual mice, n = 3
Method: Twenty-four hours before collecting conditioned media (CM), MEFs were washed with serum-free DMEM twice, and serum-free DMEM was added. After 24 h in serum-free DMEM, this CM was collected, filtered using Steriflip filters (Millipore, #SE1M179M6) to remove cell debris, and concentrated using centrifugal filter units (Amicon ultra-15 centricon; Millipore, # UFC900324). […] CM was filtered and dialyzed for 24–48 h to remove the inhibitors before concentration.
(§1) The jejunum part of the small intestine was removed, flushed with PBS, opened longitudinally, then cut into 0.5 cm pieces. The collected tissues were washed with ice cold PBS multiple times by vortexing and incubated in PBS containing 2.5 mM EDTA for 5 min at 37 °C. After gentle shaking and aspiration, tissues were incubated in PBS containing 5 mM EDTA for 7 min at 37 °C. Tissues were then washed with PBS to remove EDTA and vigorously shaken to release crypts. The released crypts were passed through 70 μm strainers, washed with PBS, and pelleted by centrifugation at 200 × g.
(§2) 3-4 biological replicates of organoids from different mice were used per condition. Organoids were cultured in the indicated media, inhibitors, antibodies and/or recombinant proteins for 5 d and fixed in 4% formaldehyde in PBS. Organoids were imaged with a 4× Plan Fluor objective (NA: 0.13, Nikon) on a Nikon Ti-E inverted microscope equipped with a Neo scMOS camera (Andor, Oxford Instruments), a linear encoded automated stage (Applied Scientific Instrumentation), all run by NIS Elements software (Nikon). Organoids were imaged in brightfield and images covering the whole well were stitched and focused into one image projection with an extended depth of focus module (EDF; Nikon). One hundred to 200 organoids per replicate per condition were counted and used for quantification. The number of budding organoids in each condition was normalized by the number of budding organoids in untreated or DMSO treated controls to calculate cystic organoid percentage:1 Cysticorganoidpercentage=100×1−Numberofbuddingorganoidsfromexperiment/Numberofbuddingorganoidsfromcontrol

[2] = test system: mouse intestinal organoids; test: inhibition of Wnt5a-induced cystic organoids; set-up: key to cystic organoids (sheet SF.5b): % cystic = 100×(1 − budding organoids treated/control); conditions: relative to Untreated = 0
Method: as §1, with “g. Resuspended crypts were mixed with Matrigel (Corning, #356231; Lot#8218007) and pipetted into culture plates. After mixture of crypts and Matrigel solidified, IntestiCult Organoid Growth Medium (Stem Cell Technologies, #06005; Lots #1000021927, #1000034230, #1000037372) was added. Seven days after seeding, organoids were resuspended in dissociation buffer (Gentle Cell Dissociation Reagent; Stem Cell Technologies, #07174), dissociated by pipetting, and seeded for experiments.” for “g.”
as §2

[3] = test system: mouse intestinal organoids; test: cystic organoid percentage, co-culture with quiescent or senescent intestinal fibroblasts; set-up: key: % = 100×(1 − budding organoids treated/budding organoids control); conditions: relative to DMSO = 0
Method: as §2
Mouse intestinal fibroblasts were purchased from Cell Biologics (#C57-6231) and cultured in Complete Fibroblast Medium (Cell Biologics, M2267) at 37 °C and 5% CO2. Cellular quiescence and senescence in mouse intestinal fibroblasts were induced by the similar methods described earlier for MEFs with minor modifications. Briefly, cellular quiescence was induced by culturing the fibroblasts in low serum (0.5% FBS), and cellular senescence was induced by 500 nM doxorubicin treatment for 5 days (doxorubicin; Sigma-Aldrich, #44583). Once cellular quiescence or senescence was induced, MEFs were maintained at 37 °C, 5% CO2, and 3% O2 for another 5 days. The quiescent or senescent fibroblasts were dissociated using 0.05% Trypsin-EDTA (Gibco, #25300-054) and counted for seeding. The same number of quiescent and senescent fibroblasts (5.2 × 10^4 cells) were mixed with intestinal organoids making total volume of 20 μl of Matrigel: organoid culture media mix, which was mounted on a 48 well plate.

Compound: O=C(CSc1nc2c(c(=O)n1-c1ccccc1)SCC2)Nc1ccc(-c2ccccc2)cn1 [IWP-L6]
- cystic organoid percentage ([1]; SF.3d, SCM + inhibitor, replicate 1): 46.6221
- cystic organoid percentage ([1]; SF.3d, SCM + inhibitor, replicate 2): 58.2456
- cystic organoid percentage ([1]; SF.3d, SCM + inhibitor, replicate 3): 31.9347

Compound: Verteporfin
- effect on cystic organoid phenotype [1]: strongly reduced the cystic organoid percentage

Compound: CN([C@@H](Cc1ccc(OS(=O)(=O)c2cccc3cnccc23)cc1)C(=O)N1CCN(c2ccccc2)CC1)S(=O)(=O)c1cccc2cnccc12 [KN62]
- cystic organoid percentage ([1]; Fig.5l, 10uM, no conditioned medium, replicate 1): 0.2849
- cystic organoid percentage ([1]; Fig.5l, 10uM, no conditioned medium, replicate 2): -0.03848
- cystic organoid percentage ([1]; Fig.5l, 10uM, no conditioned medium, replicate 3): 4.343
- cystic organoid percentage ([1]; Fig.5l, QCM + 10uM, replicate 1): -7.21
- cystic organoid percentage ([1]; Fig.5l, QCM + 10uM, replicate 2): -3.018
- cystic organoid percentage ([1]; Fig.5l, QCM + 10uM, replicate 3): -12.8255
- cystic organoid percentage ([1]; Fig.5l, SCM + 10um, replicate 1): -3.501
- cystic organoid percentage ([1]; Fig.5l, SCM + 10um, replicate 2): 1.186
- cystic organoid percentage ([1]; Fig.5l, SCM + 10um, replicate 3): 0.111

Compound: CN1CCN(CCCN2c3ccccc3Sc3ccc(C(F)(F)F)cc32)CC1 [Trifluoperazine A]
- cystic organoids (sheet SF.5b) ([2]; 100 nM Trifluoperazine A, no Wnt5a, replicate 1): 1.842
- cystic organoids (sheet SF.5b) ([2]; 100 nM Trifluoperazine A, no Wnt5a, replicate 2): -0.6895
- cystic organoids (sheet SF.5b) ([2]; 100 nM Trifluoperazine A, no Wnt5a, replicate 3): -1.481
- cystic organoids (sheet SF.5b) ([2]; 100 nM Trifluoperazine A, no Wnt5a, replicate 4): 3.596
- cystic organoids (sheet SF.5b) ([2]; 1 uM Trifluoperazine A, no Wnt5a, replicate 1): -0.2581
- cystic organoids (sheet SF.5b) ([2]; 1 uM Trifluoperazine A, no Wnt5a, replicate 2): -2.568
- cystic organoids (sheet SF.5b) ([2]; 1 uM Trifluoperazine A, no Wnt5a, replicate 3): -0.6142
- cystic organoids (sheet SF.5b) ([2]; 1 uM Trifluoperazine A, no Wnt5a, replicate 4): -2.171
- cystic organoids (sheet SF.5b) ([2]; Wnt5a + 100 nM Trifluoperazine A, replicate 1): 12.7683
- cystic organoids (sheet SF.5b) ([2]; Wnt5a + 100 nM Trifluoperazine A, replicate 2): 12.5989
- cystic organoids (sheet SF.5b) ([2]; Wnt5a + 100 nM Trifluoperazine A, replicate 3): 11.621
- cystic organoids (sheet SF.5b) ([2]; Wnt5a + 100 nM Trifluoperazine A, replicate 4): 16.7645
- cystic organoids (sheet SF.5b) ([2]; Wnt5a + 1 uM Trifluoperazine A, replicate 1): 9.106
- cystic organoids (sheet SF.5b) ([2]; Wnt5a + 1 uM Trifluoperazine A, replicate 2): 10.2184
- cystic organoids (sheet SF.5b) ([2]; Wnt5a + 1 uM Trifluoperazine A, replicate 3): 3.882
- cystic organoids (sheet SF.5b) ([2]; Wnt5a + 1 uM Trifluoperazine A, replicate 4): 10.8434

Compound: O=C(O)c1ccc2c3c1cccc3c(=O)n1c3ccccc3nc21 [STO609]
- cystic organoid percentage ([1]; Fig.5l, 5uM, no conditioned medium, replicate 1): -8.274
- cystic organoid percentage ([1]; Fig.5l, 5uM, no conditioned medium, replicate 2): -5.955
- cystic organoid percentage ([1]; Fig.5l, 5uM, no conditioned medium, replicate 3): -8.683
- cystic organoid percentage ([1]; Fig.5l, QCM + 5uM, replicate 1): -3.426
- cystic organoid percentage ([1]; Fig.5l, QCM + 5uM, replicate 2): 1.872
- cystic organoid percentage ([1]; Fig.5l, QCM + 5uM, replicate 3): -3.616
- cystic organoid percentage ([1]; Fig.5l, SCM + 5um, replicate 1): 16.8399
- cystic organoid percentage ([1]; Fig.5l, SCM + 5um, replicate 2): 8.659
- cystic organoid percentage ([1]; Fig.5l, SCM + 5um, replicate 3): 6.694

Compound: O=C(CCl)c1ccccc1Nc1cccc(C(F)(F)F)c1 [TED347]
- cystic organoid percentage ([1]; Fig.7e, 2 uM, no conditioned medium, replicate 1): -4.167
- cystic organoid percentage ([1]; Fig.7e, 2 uM, no conditioned medium, replicate 2): 2.041
- cystic organoid percentage ([1]; Fig.7e, 2 uM, no conditioned medium, replicate 3): 3.815
- cystic organoid percentage ([1]; Fig.7e, QCM + 2 uM, replicate 1): 3.646
- cystic organoid percentage ([1]; Fig.7e, QCM + 2 uM, replicate 2): 2.9703
- cystic organoid percentage ([1]; Fig.7e, QCM + 2 uM, replicate 3): -0.09671
- cystic organoid percentage ([1]; Fig.7e, SCM + 2 uM, replicate 1): 13.1944
- cystic organoid percentage ([1]; Fig.7e, SCM + 2 uM, replicate 2): 21.2963
- cystic organoid percentage ([1]; Fig.7e, SCM + 2 uM, replicate 3): 18.1818
- effect on cystic organoid phenotype [1]: reduced the percentage of cystic organoids

Compound: C=CC[C@@H]1/C=C(\C)C[C@H](C)C[C@H](OC)[C@H]2O[C@@](O)(C(=O)C(=O)N3CCCC[C@H]3C(=O)O[C@H](/C(C)=C/[C@@H]3CC[C@@H](O)[C@H](OC)C3)[C@H](C)[C@@H](O)CC1=O)[C@H](C)C[C@@H]2OC [FK506]
- effect on cystic organoid phenotype [1]: had no effect on this phenotype
- cystic organoids (sheet SF.5d) ([3]; 10 uM FK506, no fibroblasts, replicate 1): 16.7523
- cystic organoids (sheet SF.5d) ([3]; 10 uM FK506, no fibroblasts, replicate 2): 26.0945
- cystic organoids (sheet SF.5d) ([3]; 10 uM FK506, no fibroblasts, replicate 3): 24.3439
- cystic organoids (sheet SF.5d) ([3]; Q + 10uM FK506 (quiescent fibroblasts), replicate 1): 27.9243
- cystic organoids (sheet SF.5d) ([3]; Q + 10uM FK506 (quiescent fibroblasts), replicate 2): 44.452
- cystic organoids (sheet SF.5d) ([3]; Q + 10uM FK506 (quiescent fibroblasts), replicate 3): 38.0019
- cystic organoids (sheet SF.5d) ([3]; SEN + 10uM FK506 (senescent fibroblasts), replicate 1): 52.1362
- cystic organoids (sheet SF.5d) ([3]; SEN + 10uM FK506 (senescent fibroblasts), replicate 2): 72.7766
- cystic organoids (sheet SF.5d) ([3]; SEN + 10uM FK506 (senescent fibroblasts), replicate 3): 37.8556

Compound: CC(C)C[C@H](CC(=O)NO)C(=O)N[C@@H](Cc1ccc2ccccc2c1)C(=O)N[C@@H](C)C(=O)NCCN [TAPI-1]
- percentage of cystic organoids ([1]; SCM from MEFs exposed to TAPI-1 (50 uM, 24 h)): 21.6102% and 25.641% and 30.6707%

Compound: CNC(=O)[C@H](Cc1c[nH]c2ccccc12)NC(=O)[C@@H](CC(=O)NO)CC(C)C [GM6001]
- percentage of cystic organoids ([1]; SCM from MEFs exposed to GM6001 (20 uM, 24 h)): 29.2391% and 41.0714% and 39.5302%
